Results published in ChEMBL document CHEMBL2440027, “Further SAR studies on bicyclic basic merbarone analogues as potent antiproliferative agents” (Bioorg Med Chem, 2013).

Key:
BT-549 = assay: Growth inhibition of human BT549 cells assessed as cell growth at 10 uM after 48 hrs by sulforhodamine B assay relative to control; format: functional; details: BT-549, 48 h, read-out: Activity
DU-145 = assay: Growth inhibition of human DU145 cells after 48 hrs by sulforhodamine B assay; format: functional; details: DU-145, 48 h; for CC50: read-out: LC50 (the source's name)
HL-60(TB) = assay: Growth inhibition of human HL-60(TB) cells after 48 hrs by sulforhodamine B assay; format: functional; details: HL-60, 48 h
NCI-H322M [1] = assay: Growth inhibition of human NCI-H322M cells after 48 hrs by sulforhodamine B assay; format: functional; details: for CC50: read-out: LC50 (the source's name)
SNB-19 = assay: Growth inhibition of human SNB19 cells after 48 hrs by sulforhodamine B assay; format: functional; details: SNB-19, 48 h; for CC50: read-out: LC50 (the source's name)
MCF7 = assay: Cytotoxicity against human MCF7 cells; format: functional, cell-based
HeLa = assay: Cytotoxicity against human HeLa cells; format: functional, cell-based; details: Homo sapiens, HeLa
HOP-62 = assay: Growth inhibition of human HOP62 cells after 48 hrs by sulforhodamine B assay; format: functional; details: HOP-62, 48 h
K562 = assay: Growth inhibition of human K562 cells assessed as cell growth at 10 uM after 48 hrs by sulforhodamine B assay relative to control; format: functional; details: K562, 48 h, read-out: Activity
CCRF-CEM = assay: Growth inhibition of human CCRF-CEM cells after 48 hrs by sulforhodamine B assay; format: functional
UACC-62 = assay: Growth inhibition of human UACC62 cells after 48 hrs by sulforhodamine B assay; format: functional; details: UACC-62, 48 h; for CC50: read-out: LC50 (the source's name)
KM12 = assay: Growth inhibition of human KM12 cells after 48 hrs by sulforhodamine B assay; format: functional; details: KM12, 48 h
NCI-H322M [2] = assay: Growth inhibition of human NCI-H322M cells assessed as cell growth at 10 uM after 48 hrs by sulforhodamine B assay relative to control; format: functional; details: read-out: Activity
NCI-H522 = assay: Growth inhibition of human NCI-H522 cells after 48 hrs by sulforhodamine B assay; format: functional; details: NCI-H522, 48 h; for CC50: read-out: LC50 (the source's name)
[3] = target: DNA topoisomerase 2-alpha (Homo sapiens, UniProt P11388); assay: Inhibition of human topoisomerase 2alpha-mediated relaxation of supercoiled pBR322 after 1 hr by ethidium bromide staining
A498 = assay: Growth inhibition of human A498 cells after 48 hrs by sulforhodamine B assay; format: functional; details: A498, 48 h; for CC50: read-out: LC50 (the source's name)
Malme-3M = assay: Growth inhibition of human MALME-3M cells after 48 hrs by sulforhodamine B assay; format: functional; details: for CC50: read-out: LC50 (the source's name)
TK-10 = assay: Growth inhibition of human TK10 cells after 48 hrs by sulforhodamine B assay; format: functional; details: TK-10, 48 h; for CC50: read-out: LC50 (the source's name)
UACC-257 = assay: Growth inhibition of human UACC257 cells after 48 hrs by sulforhodamine B assay; format: functional; details: UACC-257, 48 h; for CC50: read-out: LC50 (the source's name)
HOP-92 = assay: Growth inhibition of human HOP92 cells assessed as cell growth at 10 uM after 48 hrs by sulforhodamine B assay relative to control; format: functional; details: HOP-92, 48 h, read-out: Activity

Chain of DNA topoisomerase 2-alpha (P11388 whole entry): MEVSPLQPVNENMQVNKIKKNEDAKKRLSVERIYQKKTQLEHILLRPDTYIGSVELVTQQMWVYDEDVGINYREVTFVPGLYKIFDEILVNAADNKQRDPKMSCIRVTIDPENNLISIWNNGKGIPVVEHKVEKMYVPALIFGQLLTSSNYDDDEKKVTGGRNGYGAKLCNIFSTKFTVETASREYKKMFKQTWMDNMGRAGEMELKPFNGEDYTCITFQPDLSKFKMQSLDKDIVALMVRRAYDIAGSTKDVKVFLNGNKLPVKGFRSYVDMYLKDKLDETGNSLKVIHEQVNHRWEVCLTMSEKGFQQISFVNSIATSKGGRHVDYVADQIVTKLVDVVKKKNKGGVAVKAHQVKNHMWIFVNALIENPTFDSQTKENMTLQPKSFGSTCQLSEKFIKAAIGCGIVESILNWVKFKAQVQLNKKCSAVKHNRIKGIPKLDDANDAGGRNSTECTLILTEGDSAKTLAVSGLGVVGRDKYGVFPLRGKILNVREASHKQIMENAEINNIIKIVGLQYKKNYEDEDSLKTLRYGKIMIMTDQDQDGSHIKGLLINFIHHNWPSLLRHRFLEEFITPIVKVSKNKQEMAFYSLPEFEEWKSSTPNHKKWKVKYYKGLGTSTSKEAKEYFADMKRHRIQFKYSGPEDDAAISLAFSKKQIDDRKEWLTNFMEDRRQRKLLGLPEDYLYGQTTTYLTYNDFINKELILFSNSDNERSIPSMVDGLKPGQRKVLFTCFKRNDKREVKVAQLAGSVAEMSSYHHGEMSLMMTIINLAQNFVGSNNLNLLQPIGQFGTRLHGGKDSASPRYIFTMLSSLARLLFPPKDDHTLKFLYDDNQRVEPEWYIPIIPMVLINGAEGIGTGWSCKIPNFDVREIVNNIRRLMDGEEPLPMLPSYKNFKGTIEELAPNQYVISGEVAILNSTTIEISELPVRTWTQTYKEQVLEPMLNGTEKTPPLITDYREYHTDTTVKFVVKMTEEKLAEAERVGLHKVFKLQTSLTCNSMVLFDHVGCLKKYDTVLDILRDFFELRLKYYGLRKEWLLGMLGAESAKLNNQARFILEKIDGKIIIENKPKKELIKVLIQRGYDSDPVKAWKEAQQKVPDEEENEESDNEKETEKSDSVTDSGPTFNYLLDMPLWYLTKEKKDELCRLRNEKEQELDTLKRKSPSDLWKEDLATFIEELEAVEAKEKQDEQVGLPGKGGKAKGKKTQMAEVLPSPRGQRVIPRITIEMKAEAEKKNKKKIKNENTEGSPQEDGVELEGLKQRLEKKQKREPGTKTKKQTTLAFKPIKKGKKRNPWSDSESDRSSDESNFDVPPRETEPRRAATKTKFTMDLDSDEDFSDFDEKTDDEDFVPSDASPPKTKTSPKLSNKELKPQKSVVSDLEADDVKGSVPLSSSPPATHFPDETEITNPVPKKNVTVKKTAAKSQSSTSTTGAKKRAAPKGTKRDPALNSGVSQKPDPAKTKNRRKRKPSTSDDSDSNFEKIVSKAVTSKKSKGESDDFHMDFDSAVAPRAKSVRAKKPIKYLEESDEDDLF

SMILES: CN(C)CCNc1nc2c(c(=N)n1-c1ccccc1)c(=S)n(-c1ccccc1)c(=S)n2-c1ccccc1
- growth at 10 µM (BT-549): 4.45%
- GI50 (DU-145): 5.3 µM
- TGI (DU-145): 18.8 µM
- CC50 (DU-145): 48.8 µM
- GI50 (HL-60(TB)): 1.5 µM
- LC50 (HL-60(TB)): 7.1 µM
- TGI (HL-60(TB)): 3.3 µM
- GI50 (NCI-H322M [1]): 6.2 µM
- TGI (NCI-H322M [1]): 20.7 µM
- CC50 (NCI-H322M [1]): 53.8 µM
- GI50 (SNB-19): 4.9 µM
- TGI (SNB-19): 19 µM
- CC50 (SNB-19): 50 µM
- IC50 (MCF7): 16 µM
- IC50 (HeLa): 12.6 µM
- GI50 (HOP-62): 2.9 µM
- LC50 (HOP-62): 55.6 µM
- TGI (HOP-62): 10.1 µM
- growth at 10 µM (K562): -11.4%
- GI50 (CCRF-CEM): 1.4 µM
- LC50 (CCRF-CEM): 9.2 µM
- TGI (CCRF-CEM): 3.6 µM
- GI50 (UACC-62): 1.8 µM
- TGI (UACC-62): 3.5 µM
- CC50 (UACC-62): 6.6 µM
- GI50 (KM12): 4.3 µM
- LC50 (KM12): 49.9 µM
- TGI (KM12): 14.6 µM
- growth at 10 µM (NCI-H322M [2]): 58.5%
- GI50 (NCI-H522): 2.1 µM
- TGI (NCI-H522): 5.4 µM
- CC50 (NCI-H522): 27.6 µM
- IC50 [3]: > 100 µM
- GI50 (A498): 2.4 µM
- TGI (A498): 6.8 µM
- CC50 (A498): 28.1 µM
- GI50 (Malme-3M): 2.6 µM
- TGI (Malme-3M): 5 µM
- CC50 (Malme-3M): 9.5 µM
- GI50 (TK-10): 3.5 µM
- TGI (TK-10): 14.3 µM
- CC50 (TK-10): 48.8 µM
- GI50 (UACC-257): 1.7 µM
- TGI (UACC-257): 3.6 µM
- CC50 (UACC-257): 7.5 µM

SMILES: CCCCN(CCCC)CCCNc1nc2c(c(=N)n1-c1ccccc1)c(=S)n(-c1ccccc1)c(=S)n2-c1ccccc1
- growth at 10 µM (BT-549): -90.6%
- GI50 (DU-145): 1.1 µM
- TGI (DU-145): 2.3 µM
- CC50 (DU-145): 4.8 µM
- growth at 10 µM (HOP-92): -66.9%
- GI50 (HL-60(TB)): 0.2 µM
- GI50 (NCI-H322M [1]): 1.4 µM
- TGI (NCI-H322M [1]): 3.2 µM
- CC50 (NCI-H322M [1]): 7.4 µM
- GI50 (SNB-19): 1.2 µM
- TGI (SNB-19): 2.7 µM
- CC50 (SNB-19): 5.8 µM
- GI50 (HOP-62): 1.2 µM
- LC50 (HOP-62): 5.4 µM
- TGI (HOP-62): 2.6 µM
- growth at 10 µM (K562): -90.3%
- GI50 (CCRF-CEM): 0.1 µM
- LC50 (CCRF-CEM): 0.6 µM
- TGI (CCRF-CEM): 0.3 µM
- GI50 (UACC-62): 0.3 µM
- TGI (UACC-62): 1.2 µM
- CC50 (UACC-62): 3.5 µM
- GI50 (KM12): 0.4 µM
- LC50 (KM12): 3.8 µM
- TGI (KM12): 1.5 µM
- growth at 10 µM (NCI-H322M [2]): -57.8%
- GI50 (NCI-H522): 0.2 µM
- TGI (NCI-H522): 1.3 µM
- CC50 (NCI-H522): 5.1 µM
- GI50 (A498): 1.1 µM
- TGI (A498): 2.4 µM
- CC50 (A498): 5.2 µM
- GI50 (Malme-3M): 0.2 µM
- TGI (Malme-3M): 0.5 µM
- CC50 (Malme-3M): 1.5 µM
- GI50 (TK-10): 1.3 µM
- TGI (TK-10): 2.7 µM
- CC50 (TK-10): 5.6 µM
- GI50 (UACC-257): 0.2 µM
- TGI (UACC-257): 0.4 µM
- CC50 (UACC-257): 0.9 µM
